This is an account of results in US20050175692A1, “Pharmaceutical formulation comprising melatonin” (Neurim Pharmaceuticals (1991) ltd., priority 2002, published 2005).

Where only a bound is given, the exact number is not on record here.

In series [1] the test system is volunteers. In words: Grooved Pegboard. It counts as in vivo, human. The settings on record: 1 and 4 hours post-dosing, compared to baseline, placebo and sustained release melatonin 2 mg. From the text: (§1) A battery of performance tests and driving skill tests were given to the patients at pre-selected intervals after the administration of the tablet. These included psychomotor tasks for reaction test, vigilance and co-ordination: ARCI 49, Grooved Pegboard, Rivermead story, picture presentation, simple reaction time, digit vigilance task, choice reaction time, delayed picture recognition, visual tracking, driving simulator: highway driving and wake-EEG.

In series [2] the test system is volunteers. In words: Treatment-emergent adverse events in the psychomotor/driving study. Also on record: species or system human. The settings on record: in vivo.
From the text: as §1

The subject of series [3] is volunteers. In words: Rivermead story (immediate and delayed recall). It counts as in vivo, human. The following applies: compared to placebo and sustained release melatonin 2 mg.
From the text: as §1

Series [4] concerns volunteers. In words: Cognitive Drug Research tests (attention, episodic secondary memory, motor co-ordination). It counts as in vivo, human.
From the text: as §1

The conditions of series [5]: single evening tablet; melatonin sustained release 2 mg, zolpidem 10 mg. As for the experimental part:
Method. The pharmacokinetics of melatonin (2 mg sustained release formulation), zolpidem (10 mg) and their combination were assessed in 16 volunteers (12 males and 4 females).
Blood samples were withdrawn from the subjects at pre-selected intervals after the administration of the tablets.

The subject of series [6] is volunteers. In words: Wake EEG. It counts as in vivo, human.
From the text: as §1

The subject of series [7] is volunteers. The series is described as follows: ARCI 49 (MBG, LSD, PCAG, BG scales). It counts as in vivo, human.
From the text: as §1

Series [8] concerns volunteers. The series is described as follows: Driving simulator: highway driving. The series is classed as in vivo, human. The following applies: 2 hours post-dosing.
From the text: as §1

Regarding `Cc1ccc(-c2nc3ccc(C)cn3c2CC(=O)N(C)C)cc1` [Zolpidem, N,N,6-trimethyl-2-p-toyl-imidazo[1,2,-a]pyridine-3-acetamide L-(+)-tartrate (2:1)], the “Duration of task execution (ipsi and contra lateral)” value in the series with volunteers [1] is “significant increase”. Also, the “Incidence of somnolence compared with melatonin alone and placebo” value with volunteers [2] is reported as “clearly increased”. Besides, in the series on volunteers [3], the “Memory efficiency, both recalls (immediate and delayed)” value is “decreased”. The “Cognitive effects compared to placebo” value with volunteers [4] (dosed alone, melatonin SR 2 mg or zolpidem 10 mg) is given as “several acute impairments”. Moreover, the “Time post-dosing by which acute impairments were resolved” value in the series with volunteers [4] (zolpidem 10 mg alone vs placebo) is ≤ 12.5 h. In series [5], the “Time to maximum, zolpidem in serum, Mean (SD)” value was 1.8 (1.2) h and the “maximum concentration, zolpidem in serum, Mean (SD)” value is 0.22 (0.11) mcg/ml. Moreover, the “Alpha activity in driving conditions vs sustained release melatonin alone” value with volunteers [6] (driving conditions, not different vs placebo) is given as “significantly increased”. In the series with volunteers [6] (in vivo), the “Theta rhythm on frontal leads vs placebo” value is recorded as “increased”. Moreover, the “Alpha activity in resting conditions vs placebo” value in the series with volunteers [6] (resting conditions) was “decreases in alpha”. The “Sedative effect (increase of the PCAG scale) vs placebo” value in the series with volunteers [7] (first 4 hours post-dosing) is “strong significant sedative effect”. In addition, the “Time after administration at which PCAG sedative effect reached the maximum” value with volunteers [7] (in vivo) is “about 4 hour”. Further, the Number of collisions entry in the series with volunteers [8] is listed as “increased number of collisions”.
